Patent US12686652B2, “Methods of increasing irrigation water and fertilizer delivery to soil using formic acid and formate salts, making a formate salt from carbon dioxide, and generating a carbon credit” (Deerpoint Group, Inc., priority 2023, dated 2026)
“And” between values parts separate entries of the source, which are not always exact repeats. Identical values can stand only once. Like-named read-outs stand apart in the source and are kept apart here.

Columns and labels:
[1] = first pass
Source text: The irrigation water at the second farm was from a different source than the first farm.

[2] = for Drainage Rate: Time (50 g), percentage relative to irrigation water / Drainage Rate: liquid eluted at 60 mins, percentage relative to irrigation water / Drainage Rate: liquid eluted at 120 mins, percentage relative to irrigation water / Liquid Eluted after 60 min / Liquid Eluted after 120 min / Time (50 g of liquid, in min) / More liquid eluted by mass than the irrigation water: first farm soil; for Liquid Eluted after 60 min / Liquid Eluted after 120 min / Time (50 g of liquid, in min): Ca formate 22 ppm by moles, HCO2H 0.33% by weight, average of two columns
Source text: The objective was to investigate the behavior of different irrigation water treatments and determine the relative amounts of water that passed through the soil columns. The column retention times reflect the rate at which the liquid passes through the soil. Understanding these retention times provides insights about the transport and movement of irrigation water (and any fertilizers dissolved therein) through the soil, which has implications for the volume of water passing into and through the root zone, nutrient availability to crops, leaching of contaminants, and overall soil health.
The data in Table 1 is for the average of the two soil samples.

[3] = first farm soil, duplicate columns A and B
[4] = ICP and flow injection (FIA) analyses of solutions passed through soil columns, second farm; details: single soil sample
Source text: FIA was used to determine the content of the listed anion (e.g., NO3, Cl, PO4, etc.). Results are presented from a single soil sample.

[5] = for Solubility as percentage of the solubility of potassium formate in water: 68-86° F. (20-30° C.); for Solubility (g K2O/100 g H2O): water
Source text: The table below lists the solubilities of various potassium fertilizers in water (as K2O) on a weight basis:

[6] = 1st pass, Alternating = formic acid pass
[7] = 2nd pass, Alternating = calcium formate pass
[8] = 3rd pass, Alternating = formic acid pass
[9] = 4th pass, Alternating = calcium formate pass
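For Mn in solution passed through soil column (ICP) in this document: eluate from PVC columns holding 100 g of dry ground farm soil, analysed by ICP-OES for element content after the solution had drained through, irrigation water measured as received for reference.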

## O=CO [HCO2H, formic acid]
[1]; dry soil, second farm (FIG. 3)
  Liquid retained by the soil samples on average: 41 to 42 mL
  Time of first appearance of liquid from the columns on average: < 20 min
[1]; second farm, from 20-30 minutes up to 240 minutes
  Amount of liquid passed through the columns compared with irrigation water at the same lengths of time: more than three times as much
[2]; 1st pass
  Drainage Rate: Time (50 g), percentage relative to irrigation water: 50.0%
  Drainage Rate: liquid eluted at 60 mins, percentage relative to irrigation water: 214%
  Drainage Rate: liquid eluted at 120 mins, percentage relative to irrigation water: 168%
  Liquid Eluted after 60 min: 34.1 g
  Liquid Eluted after 120 min: 59.7 g
  Time (50 g of liquid, in min): 90 min
[2]; 2nd pass
  Drainage Rate: Time (50 g), percentage relative to irrigation water: 50.0%
  Drainage Rate: liquid eluted at 60 mins, percentage relative to irrigation water: 206%
  Drainage Rate: liquid eluted at 120 mins, percentage relative to irrigation water: 198%
  Liquid Eluted after 60 min: 43.9 g
  Liquid Eluted after 120 min: 78.9 g
  Time (50 g of liquid, in min): 90 min
[2]; 3rd pass
  Drainage Rate: Time (50 g), percentage relative to irrigation water: 50.0%
  Drainage Rate: liquid eluted at 60 mins, percentage relative to irrigation water: 189%
  Drainage Rate: liquid eluted at 120 mins, percentage relative to irrigation water: 189%
  Liquid Eluted after 60 min: 36.0 g
  Liquid Eluted after 120 min: 68.3 g
  Time (50 g of liquid, in min): 90 min
[2]; 4th pass
  Drainage Rate: Time (50 g), percentage relative to irrigation water: 50.0%
  Drainage Rate: liquid eluted at 60 mins, percentage relative to irrigation water: 207%
  Drainage Rate: liquid eluted at 120 mins, percentage relative to irrigation water: 183%
  Liquid Eluted after 60 min: 40.5 g
  Liquid Eluted after 120 min: 69.5 g
  Time (50 g of liquid, in min): 90 min
[2]; first pass, dry soil, first farm, 100 ml added (FIG. 1)
  Liquid retained by the soil samples on average: about 36 ml
[2]; first pass
  More liquid eluted by mass than the irrigation water: 170-210%
[2]; fourth pass
  More liquid eluted by mass than the irrigation water: 180-210%
[2]; second pass
  More liquid eluted by mass than the irrigation water: 200-210%
[2]; third pass
  More liquid eluted by mass than the irrigation water: ~ 190%
[3]; 1st pass
  B in solution passed through soil column (ICP): 4.34 ppm and 4.25 ppm
  Ca in solution passed through soil column (ICP): 268.8 ppm and 261.2 ppm
  K in solution passed through soil column (ICP): 19.52 ppm and 18.52 ppm
  Mg in solution passed through soil column (ICP): 107.6 ppm and 103.1 ppm
  Mn in solution passed through soil column (ICP): 4.40 ppm and 4.25 ppm
  Na in solution passed through soil column (ICP): 111.2 ppm and 109.8 ppm
  P in solution passed through soil column (ICP): 1.06 ppm and 0.55 ppm
  S in solution passed through soil column (ICP): 83.5 ppm and 74.5 ppm
  Si in solution passed through soil column (ICP): 31.3 ppm and 30.9 ppm
[3]; 2nd pass
  B in solution passed through soil column (ICP): 2.42 ppm and 2.41 ppm
  Ca in solution passed through soil column (ICP): 173.7 ppm and 205.0 ppm
  K in solution passed through soil column (ICP): 15.36 ppm and 17.82 ppm
  Mg in solution passed through soil column (ICP): 69.7 ppm and 79.2 ppm
  Mn in solution passed through soil column (ICP): 3.32 ppm and 3.98 ppm
  Na in solution passed through soil column (ICP): 53.9 ppm and 49.3 ppm
  P in solution passed through soil column (ICP): 1.01 ppm and 0.73 ppm
  S in solution passed through soil column (ICP): 22.8 ppm and 22.1 ppm
  Si in solution passed through soil column (ICP): 34.1 ppm and 40.9 ppm
[3]; 3rd pass
  B in solution passed through soil column (ICP): 2.09 ppm and 1.82 ppm
  Ca in solution passed through soil column (ICP): 167.8 ppm and 176.4 ppm
  K in solution passed through soil column (ICP): 14.81 ppm and 16.46 ppm
  Mg in solution passed through soil column (ICP): 66.6 ppm and 67.2 ppm
  Mn in solution passed through soil column (ICP): 5.00 ppm and 5.23 ppm
  Na in solution passed through soil column (ICP): 36.5 ppm and 31.2 ppm
  P in solution passed through soil column (ICP): 1.09 ppm and 0.90 ppm
  S in solution passed through soil column (ICP): 13.4 ppm and 11.5 ppm
  Si in solution passed through soil column (ICP): 46.9 ppm and 49.9 ppm
[3]; 4th pass
  B in solution passed through soil column (ICP): 0.79 ppm and 0.73 ppm
  Ca in solution passed through soil column (ICP): 130.3 ppm and 140.7 ppm
  K in solution passed through soil column (ICP): 13.34 ppm and 15.64 ppm
  Mg in solution passed through soil column (ICP): 50.6 ppm and 52.5 ppm
  Mn in solution passed through soil column (ICP): 4.46 ppm and 4.84 ppm
  Na in solution passed through soil column (ICP): 16.6 ppm and 16.4 ppm
  P in solution passed through soil column (ICP): 1.33 ppm and 1.63 ppm
  S in solution passed through soil column (ICP): 3.7 ppm and 3.6 ppm
  Si in solution passed through soil column (ICP): 34.1 ppm and 35.3 ppm
[4]; [6]
  B in solution passed through soil column (ICP): 0.6 ppm
  Ca in solution passed through soil column (ICP): 260.7 ppm
  Cl^− in solution passed through soil column (FIA): 304.0 ppm
  K in solution passed through soil column (ICP): 9.7 ppm
  Mg in solution passed through soil column (ICP): 69.3 ppm
  NO3^− in solution passed through soil column (FIA): 0.0 ppm
  Na in solution passed through soil column (ICP): 345.5 ppm
  P in solution passed through soil column (ICP): 0.7 ppm
  S in solution passed through soil column (ICP): 43.8 ppm
  Si in solution passed through soil column (ICP): 31.8 ppm
[4]; [7]
  B in solution passed through soil column (ICP): 0.5 ppm
  Ca in solution passed through soil column (ICP): 312.7 ppm
  Cl^− in solution passed through soil column (FIA): 102.8 ppm
  K in solution passed through soil column (ICP): 9.0 ppm
  Mg in solution passed through soil column (ICP): 81.3 ppm
  NO3^− in solution passed through soil column (FIA): 0.0 ppm
  Na in solution passed through soil column (ICP): 175.2 ppm
  P in solution passed through soil column (ICP): 1.9 ppm
  S in solution passed through soil column (ICP): 11.4 ppm
  Si in solution passed through soil column (ICP): 43.1 ppm
[4]; [8]
  B in solution passed through soil column (ICP): 0.4 ppm
  Ca in solution passed through soil column (ICP): 337.4 ppm
  Cl^− in solution passed through soil column (FIA): 91.7 ppm
  K in solution passed through soil column (ICP): 9.9 ppm
  Mg in solution passed through soil column (ICP): 84.0 ppm
  NO3^− in solution passed through soil column (FIA): 0.0 ppm
  Na in solution passed through soil column (ICP): 79.9 ppm
  P in solution passed through soil column (ICP): 5.8 ppm
  S in solution passed through soil column (ICP): 8.0 ppm
  Si in solution passed through soil column (ICP): 51.9 ppm
[4]; [9]
  B in solution passed through soil column (ICP): 0.3 ppm
  Ca in solution passed through soil column (ICP): 286.6 ppm
  Cl^− in solution passed through soil column (FIA): 92.9 ppm
  K in solution passed through soil column (ICP): 10.6 ppm
  Mg in solution passed through soil column (ICP): 65.5 ppm
  NO3^− in solution passed through soil column (FIA): 0.0 ppm
  Na in solution passed through soil column (ICP): 66.1 ppm
  P in solution passed through soil column (ICP): 6.4 ppm
  S in solution passed through soil column (ICP): 8.3 ppm
  Si in solution passed through soil column (ICP): 65.2 ppm

## O=S([O-])([O-])=S.[K+].[K+] [K2SSO3, potassium thiosulfate]
[5]
  Solubility as percentage of the solubility of potassium formate in water: about 40%
[5]; 32 ° F.
  Solubility (g K2O/100 g H2O): 48 g K2O/100 g H2O
[5]; 68 ° F.
  Solubility (g K2O/100 g H2O): 77 g K2O/100 g H2O
[5]; 86 ° F.
  Solubility (g K2O/100 g H2O): 87 g K2O/100 g H2O

## [Cl-].[K+] [KCl, potassium chloride]
[5]
  Solubility as percentage of the solubility of potassium formate in water: about 12%
[5]; 32 ° F.
  Solubility (g K2O/100 g H2O): 18 g K2O/100 g H2O
[5]; 68 ° F.
  Solubility (g K2O/100 g H2O): 22 g K2O/100 g H2O
[5]; 86 ° F.
  Solubility (g K2O/100 g H2O): 24 g K2O/100 g H2O
